The record followed here is patent publication US6632816B1, “Aromatic derivatives as HIV aspartyl protease inhibitors” (Pharmacor Inc., priority 2002, dated 2003).

Each structure is given as a SMILES string.

The target in one experiment is HIV protease (Human immunodeficiency virus type 1 group M subtype B, UniProt P04585). Description: biochemical.
Experiment [1] deals with HIV-1 laboratory viral strain NL4.3 (wild type virus). The experiment is described as follows: Anti-viral assay in vitro (MTT, infected MT-4 cells). It is filed as cell-based. Conditions: Human immunodeficiency virus 1, MT4, 144 h; MT-4 cells infected with NL4.3, six days, MTT assay; read-out: EC50. The procedure: Anti-viral and Cytotoxicity Assays In Vitro
To evaluate the EC50 of our compounds, various drug concentrations are incubated with the infected cell for six days and then the metabolic activity of the cells is monitored by the MTT assay. (See A. J. Japour et al, Antimicrobial Agents and Chemotherapy, 37, 1095-1101, 1993 and R. Pauwels et al. Journal of Virological Methods, 20, 309-321, 1988)
We use the laboratory viral strain NL4.3 as wild type virus and the cell line used is MT-4 which is a T-cell line highly sensitive to HIV-1. We also use some WT clinical strains. To address the resistance issue we assay the inhibitors with NL4.3 mutants which are designed to be resistant to specific commercially,available inhibitors
(In general: Tetrazolium dyes change colour on reduction, which living cells bring about.)

From the text for HIV protease: Enzymatic Assay for Determining the Inhibition Constant (Ki) of Synthetic Compounds Targeting the HIV Protease
This is a fluorometric assay based on the cleavage by protease of a substrate carrying a donor group (EDANS) and an acceptor group (DABCYL) on each side of the cleavage site, interacting together through fluorescence resonance energy transfer (FRET) as described by Matayoshi et al. (Science 247:954-954, 1990).
After calculation of Vo and Vi, the inhibition constant (Ki) of the compound is determined using the equation of Henderson: [formula]
where Vo=the enzyme's initial velocity
Vi=the enzyme velocity in the presence of the inhibitory compound,
[I]=inhibitor concentration, [S]=substrate concentration,
Km=Michaelis-Menten constant and Kiapp=apparent Ki
Graphs are traced and the Ki determined using GraphPad Prism software v.

In the case of `COC(=O)N[C@@H](Cc1ccc2ccccc2c1)C(=O)NCCC[C@@H](CO)N(CC(C)C)S(=O)(=O)c1ccc(N)cc1` [Example 1, (1S,4S)-(1-{4-[(4-Amino-benzenesulfonyl)-isobutyl-amino]-5-hydroxy-pentylcarbamoyl}-2-naphthalen-2-yl-ethyl)-carbamic Acid Methyl Ester], affinity on HIV protease was put at a Ki of 7.3 nM. Besides, the EC50 in experiment [1] was found to be 1470 nM.
For `COC(=O)N[C@@H](Cc1cccc2ccccc12)C(=O)NCCC[C@@H](CO)N(CC(C)C)S(=O)(=O)c1ccc(N)cc1` [Example 2, (1S,4S)-(1-{4-[(4-Amino-benzenesulfonyl)-isobutyl-amino]-5-hydroxy-pentylcarbamoyl}-2-naphthalen-1-yl-ethyl)-carbamic Acid Methyl Ester], in that order: 2.8 nM and 674 nM.
For `COC(=O)NC(Cc1ccccc1-c1ccccc1)C(=O)NCCCC(CO)N(CC(C)C)S(=O)(=O)c1ccc(N)cc1` [Example 3, (1R,S,4S)-(1-{4-[(4-Amino-benzenesulfonyl)-isobutyl-amino]-5-hydroxy-pentylcarbamoyl}-2-biphenyl-2-yl-ethyl)-carbamic Acid Methyl Ester], the Ki on HIV protease was 2.4 nM. The EC50 in experiment [1] turned out to be 64 nM.
For `CC(C)CN([C@H](CO)CCCNC(=O)[C@H](Cc1cccc2ccccc12)NC(=O)N1CCOCC1)S(=O)(=O)c1ccc(N)cc1` [Example 4, (1S,4S)-Morpholine-4-carboxylic Acid (1-{4-[(4-Amino-benzenesulfonyl)-isobutyl-amino]-5-hydroxy-pentylcarbamoyl}-2-naphthalen-1-yl-ethyl)-amide], in that order: 1.4 nM and 728 nM.
The like results for `CC(C)CN([C@H](CO)CCCNC(=O)[C@@H](NC(=O)N1CCOCC1)C(c1ccccc1)c1ccccc1)S(=O)(=O)c1ccc(N)cc1` [Example 9, (1S,4S)-Morpholine-4-carboxylic Acid (1-{4-[(4-Amino-benzenesulfonyl)-isobutyl-amino]-5-hydroxy-pentylcarbamoyl}-2,2-diphenyl-ethyl)-amide] were, in that order, 4.2 nM and 1300 nM.
`COC(=O)N[C@H](C(=O)NCCC[C@@H](CO)N(CC(C)C)S(=O)(=O)c1ccc(N)cc1)C(c1ccccc1)c1ccccc1` [Example 10, (1S,4S)-(1-{4-[(4-Amino-benzenesulfonyl)-isobutyl-amino]-5-hydroxy-pentylcarbamoyl}-2,2-diphenyl-ethyl)-carbamic Acid Methyl Ester]: on HIV protease, the Ki is 5 nM. The EC50 in experiment [1] is 514 nM.
For `COC(=O)C(=O)N[C@@H](Cc1cccc2ccccc12)C(=O)NCCC[C@@H](CO)N(CC(C)C)S(=O)(=O)c1ccc(N)cc1` [Example 11, (1S,4S)-N-(1-{4-[(4-Amino-benzenesulfonyl)-isobutyl-amino]-5-hydroxy-pentylcarbamoyl}-2-naphthalen-1-yl-ethyl)-oxalamic Acid Methyl Ester], in that order: 5 nM and 64000 nM.
For the compound `CC(C)CN([C@H](CO)CCCNC(=O)[C@H](Cc1cccc2ccccc12)NC(=O)CC(F)(F)F)S(=O)(=O)c1ccc(N)cc1` [Example 12, (1S,4S)-N-(1-{4-[(4-Amino-benzenesulfonyl)-isobutyl-amino]-5-hydroxy-pentylcarbamoyl}-2-naphthalen-1-yl-ethyl)-3,3,3-trifluoro-propionamide], in experiment [1], the EC50 was 747 nM.
Regarding `COC(=O)N[C@@H](Cc1ccccc1-c1ccc(OC)cc1)C(=O)NCCCC[C@@H](CO)N(CC(C)C)S(=O)(=O)c1ccc(N)cc1` [Example 31, (1S,5S)-[1-{5-[(4-Amino-benzenesulfonyl)-isobutyl-amino]-6-hydroxy-hexylcarbamoyl}-2-(4′-methoxy-biphenyl-2-yl)-ethyl]-carbamic Acid Methyl Ester], the Ki at HIV protease was 0.667 nM. Besides, in experiment [1], the EC50 came to 118 nM.
For `CC(C)CN([C@H](CO)CCCCNC(=O)[C@H](Cc1cccc2ccccc12)NC(=O)N1CCOCC1)S(=O)(=O)c1ccc(N)cc1` [Example 32, (1S,5S)-Morpholine-4-carboxylic Acid (1-{5-[(4-Amino-benzenesulfonyl)-isobutyl-amino]-6-hydroxy-hexylcarbamoyl}-2-naphthalen-1-yl-ethyl)-amide], in that order: 0.782 nM and 30 nM.
As to `CC(C)CN([C@H](CO)CCCCNC(=O)[C@H](Cc1ccc2ccccc2c1)NC(=O)CC(F)(F)F)S(=O)(=O)c1ccc(N)cc1` [Example 61, (1S,5S)-N-(1-{5-[(4-Amino-benzenesulfonyl)-isobutyl-amino]-6-hydroxy-hexylcarbamoyl}-2-naphthalen-2-yl-ethyl)-3,3,3-trifluoro-propionamide], the EC50 in experiment [1] was 161 nM.
Still for that read-out and setting: to `COC(=O)N[C@H](C(=O)NCCCC[C@@H](CO)N(CC(C)C)S(=O)(=O)c1ccc2c(c1)OCO2)C(c1ccccc1)c1ccccc1` [Example 67, (1S,5S)-(1-{5-[(Benzo[1,3]dioxole-5-sulfonyl)-isobutyl-amino]-6-hydroxy-hexylcarbamoyl}-2,2-diphenyl-ethyl)-carbamic Acid Methyl Ester] belongs 146 nM.
At HIV protease, `COc1cc(C(=O)N[C@H](C(=O)NCCCC[C@@H](CO)N(CC(C)C)S(=O)(=O)c2ccc(N)cc2)C(c2ccccc2)c2ccccc2)ccc1O` [Example 106, (1S,5S)-N-(1-{5-[(4-Amino-benzenesulfonyl)-isobutyl-amino]-6-hydroxy-hexylcarbamoyl}-2,2-diphenyl-ethyl)-4-hydroxy-3-methoxy-benzamide] registered a Ki below 3.8 nM.
`CC(C)CN([C@H](CO)CCCCNC(=O)[C@@H](NC(=O)c1ccc([N+](=O)[O-])c(O)c1)C(c1ccccc1)c1ccccc1)S(=O)(=O)c1ccc(N)cc1` [Example 107, (1S,5S)-N-(1-{5-[(4-Amino-benzenesulfonyl)-isobutyl-amino]-6-hydroxy-hexylcarbamoyl}-2,2-diphenyl-ethyl)-3-hydroxy-4-nitro-benzamide] returned a Ki on HIV protease below 3.8 nM.
In turn, `CC(C)CN([C@H](CO)CCCCNC(=O)[C@@H](NC(=O)c1ncccc1O)C(c1ccccc1)c1ccccc1)S(=O)(=O)c1ccc(N)cc1` [Example 108, (1S,5S)-3-Hydroxy-pyridine-2-carboxylic Acid-N-(1-{5-[(4-amino-benzenesulfonyl)-isobutyl-amino]-6-hydroxy-hexylcarbamoyl}-2,2-diphenyl-ethyl)-amide] returned an inhibition constant Ki on HIV protease below 3.8 nM.
On the same count and under the same terms, to `CC(C)CN([C@H](CO)CCCCNC(=O)[C@@H](NC(=O)c1ccc(N)nc1)C(c1ccccc1)c1ccccc1)S(=O)(=O)c1ccc(N)cc1` [Example 109, (1S,5S)-6-Amino-N-(1-{5-[(4-amino-benzenesulfonyl)-isobutyl-amino]-6-hydroxy-hexylcarbamoyl}-2,2-diphenyl-ethyl)-nicotinamide] belongs below 3.8 nM; to `CC(C)CN([C@H](CO)CCCCNC(=O)[C@@H](NC(=O)c1ccc(O)nc1)C(c1ccccc1)c1ccccc1)S(=O)(=O)c1ccc(N)cc1` [Example 110, (1S,5S)-N-(1-{5-[(4-Amino-benzenesulfonyl)-isobutyl-amino]-6-hydroxy-hexylcarbamoyl}-2,2-diphenyl-ethyl)-6-hydroxy-nicotinamide], below 3.8 nM.
Still for that read-out and setting: to `Cc1ncccc1C(=O)N[C@H](C(=O)NCCCC[C@@H](CO)N(CC(C)C)S(=O)(=O)c1ccc(N)cc1)C(c1ccccc1)c1ccccc1` [Example 111, (1S,5S)-N-(1-{5-[(4-Amino-benzenesulfonyl)-isobutyl-amino]-6-hydroxy-hexylcarbamoyl}-2,2-diphenyl-ethyl)-2-methyl-nicotinamide] belongs below 3.8 nM; to `Cc1ccc(C(=O)N[C@H](C(=O)NCCCC[C@@H](CO)N(CC(C)C)S(=O)(=O)c2ccc(N)cc2)C(c2ccccc2)c2ccccc2)cn1` [Example 112, (1S,5S)-N-(1-{5-[(4-Amino-benzenesulfonyl)-isobutyl-amino]-6-hydroxy-hexylcarbamoyl}-2,2-diphenyl-ethyl)-6-methyl-nicotinamide], below 3.8 nM.
The compound `CC(C)CN([C@H](CO)CCCCNC(=O)[C@@H](N)Cc1ccc2ccccc2c1)S(=O)(=O)c1ccc(N)c(F)c1` [Example 113, (2S,5S)-2-Amino-N-{5-[(4-amino-3-fluoro-benzenesulfonyl)-isobutyl-amino]-6-hydroxy-hexyl}-3-naphthalen-2-yl-propionamide] registered a Ki at HIV protease below 3.8 nM.
Consider `CC(C)CN([C@H](CO)CCCCNC(=O)[C@H](Cc1ccc2ccccc2c1)NC(=O)c1cnc[nH]1)S(=O)(=O)c1ccc(F)c(N)c1` [Example 114, (1S,5S)-3H-Imidazole-4-carboxylic Acid (1-{5-[(3-Amino-4-fluoro-benzenesulfonyl)-isobutyl-amino]-6-hydroxy-hexylcarbamoyl}-2-naphthalen-2-yl-ethyl)-amide], for which the inhibitory constant (Ki) on HIV protease was below 3.8 nM.
On HIV protease, `CC(C)CN([C@H](CO)CCCCNC(=O)[C@H](Cc1ccc2ccccc2c1)NC(=O)N1CCCC1)S(=O)(=O)c1ccc(F)c(N)c1` [Example 115, (1S,5S)Pyrrolidine-1-carboxylic Acid (1-{5-[(3-Amino-4-fluoro-benzenesulfonyl)-isobutyl-amino]-6-hydroxy-hexylcarbamoyl}-2-naphthalen-2-yl-ethyl)-amide] returned a Ki below 3.8 nM.
For `COC(=O)N[C@@H](Cc1ccc2ccccc2c1)C(=O)NCCCC[C@@H](CO)N(CC(C)C)S(=O)(=O)c1ccc(N)c(F)c1` [Example 116, (1S,5S) (1-{5-[(4-Amino-3-fluoro-benzenesulfonyl)-isobutyl-amino]-6-hydroxy-hexylcarbamoyl}-2-naphthalen-2-yl-ethyl)-carbamic Acid Methyl Ester], at HIV protease, the Ki was below 3.8 nM.

A word on the Ki: it is a measure of affinity in units of concentration, obtained from inhibition or displacement. Higher therefore signals a looser hold on the target. Broadly, the EC50 is the midpoint of the concentration-response curve.
